# Experimental data as given in patent US20150010928A1, “MEANS AND METHODS FOR ASSESSING AN ENDOCRINE DISEASE OR DISORDER” (priority 2012, published 2015).
# Structures can show the parent of a compound that is named as a salt. Marks after values point to notes of the source that are not given here.
# System: male rats
# Experiment: Plasma metabolite profiling (GC-MS, LC-MS, SPE-LC-MS) in male rats dosed once daily over 28 days (OECD 407)
# Type: in vivo, rat
# Settings: for Glucose, ratio versus control / Lysophosphatidylcholine (C20:4), ratio versus control / Threonic acid, ratio versus control: male rats, plasma, low dose
# Experimental: Each dose group in the studies consisted of five rats per sex. Additional groups of each 5 male and female animals served as controls. […] All animals of the animal population were kept under the same constant temperature (20-24±3° C.) and the same constant humidity (30-70%). The animals of the animal population were fed ad libitum. The food to be used was essentially free of chemical or microbial contaminants. Drinking water was also offered ad libitum. Accordingly, the water was free of chemical and microbial contaminants as laid down in the European Drinking Water Directive 98/83/EG. The illumination period was 12 hours light followed by 12 hours darkness (12 hours light, from 6:00 to 18:00, and 12 hours darkness, from 18:00 to 6:00). […] The test substances (compounds) in the Tables 1 to 17 below were dosed and administered as described in the Table 18.
# In the morning of day 7, 14, and 28, blood was taken from the retroorbital venous plexus from fasted anaesthetized animals. From each animal, 1 ml of blood was collected with EDTA as anticoagulant. The samples were centrifuged for generation of plasma. All plasma samples were covered with a N2 atmosphere and then stored at −80° C. until analysis.
# For mass spectrometry-based metabolite profiling analyses plasma samples were extracted and a polar and a non-polar (lipid) fraction was obtained. For GC-MS analysis, the non-polar fraction was treated with methanol under acidic conditions to yield the fatty acid methyl esters. Both fractions were further derivatised with O-methyl-hydroxyamine hydrochloride and pyridine to convert Oxogroups to O-methyloximes and subsequently with a silylating agent before analysis. In LC-MS analysis, both fractions were reconstituted in appropriate solvent mixtures. HPLC was performed by gradient elution on reversed phase separation columns. Mass spectrometric detection which allows target and high sensitivity MRM (Multiple Reaction Monitoring) profiling in parallel to a full screen analysis was applied as described in WO2003073464.
# Steroids and their metabolites were measured by online SPE-LC-MS (Solid phase extraction-LC-MS).
# Following comprehensive analytical validation steps, the data for each analyte were normalized against data from pool samples. These samples were run in parallel through the whole process to account for process variability. The significance of treatment group values specific for sex, treatmentduration and metabolite was determined by comparing means of the treated groups to the means of the respective untreated control groups using WELCH-test and quantified with treatment ratios versus control and p-values.
# The identification of the most important biomarkers per toxicity pattern was done by a ranking of the analytes in the tables below. Therefore the metabolic changes in reference treatments of a given pattern (shown in the table) were compared with changes of the same metabolite in other unrelated treatments. […] The maximum absolute value of the respective TVALUE was taken to indicate the most important metabolite for the pattern.
smiles,measurement,setting,value
OCCNCCO [Diethanolamine],Cholesterol,"m7, high dose, Table 14b",0.75
same,Choline plasmalogen No 02,"m7, high dose, Table 14b",0.89
same,Lignoceric acid (C24:0),"m7, high dose, Table 14b",0.7
same,"Sphingomyelin (d18:1, C16:0)","m7, high dose, Table 14b",0.68
same,"Sphingomyelin (d18:2, C16:0)","m7, high dose, Table 14b",0.74
same,erythro-Sphingosine (d18:1),"m7, high dose, Table 14b",0.62
same,Cholesterol,"m14, high dose, Table 14b",0.72
same,Choline plasmalogen No 02,"m14, high dose, Table 14b",0.68
same,Lignoceric acid (C24:0),"m14, high dose, Table 14b",0.68
same,"Sphingomyelin (d18:1, C16:0)","m14, high dose, Table 14b",0.71
same,"Sphingomyelin (d18:2, C16:0)","m14, high dose, Table 14b",0.73
same,erythro-Sphingosine (d18:1),"m14, high dose, Table 14b",0.58
same,Cholesterol,"m28, high dose, Table 14b",0.69
same,Choline plasmalogen No 02,"m28, high dose, Table 14b",0.74
same,Lignoceric acid (C24:0),"m28, high dose, Table 14b",0.67
same,"Sphingomyelin (d18:1, C16:0)","m28, high dose, Table 14b",0.7
same,"Sphingomyelin (d18:2, C16:0)","m28, high dose, Table 14b",0.63
same,erythro-Sphingosine (d18:1),"m28, high dose, Table 14b",0.52
OC(c1ccc(Cl)cc1)(c1cncnc1)c1ccccc1Cl (stereo not drawn) [Fenarimol],"Glucose, ratio versus control",day 7,0.9
same,"Lysophosphatidylcholine (C20:4), ratio versus control",day 7,0.99
same,"Threonic acid, ratio versus control",day 7,1.37 *
same,"Glucose, ratio versus control",day 14,0.9 *
same,"Lysophosphatidylcholine (C20:4), ratio versus control",day 14,0.96 *
same,"Threonic acid, ratio versus control",day 14,1.3 *
same,"Glucose, ratio versus control",day 28,0.91 *
same,"Lysophosphatidylcholine (C20:4), ratio versus control",day 28,0.97 *
same,"Threonic acid, ratio versus control",day 28,1.34 *
CNCCC(Oc1ccc(C(F)(F)F)cc1)c1ccccc1 (stereo not drawn) [Fluoxetine hydrochloride],3-O-Methylsphingosine (d18:1),"m7, high dose, Table 10a",1.33
same,5-O-Methylsphingosine (d18:1),"m7, high dose, Table 10a",1.43
same,Cysteine,"m7, high dose, Table 10a",1.81 *
same,Lignoceric acid (C24:0),"m7, high dose, Table 10a",1.33
same,Nervonic acid (C24:cis[15]1),"m7, high dose, Table 10a",1.37
same,Oleic acid (C18:cis[9]1),"m7, high dose, Table 10a",0.83
same,Stearic acid (C18:0),"m7, high dose, Table 10a",1.21
same,alpha-Tocopherol,"m7, high dose, Table 10a",1.37
same,threo-Sphingosine (d18:1),"m7, high dose, Table 10a",1.2
same,Oleic acid (C18:cis[9]1),"m7, high dose, Table 10b",0.83^
same,"Phosphatidylcholine (C16:0, C16:0)","m7, high dose, Table 10b",0.99^
same,Thyroxine (T4),"m7, high dose, Table 10b",0.42 *
same,trans-4-Hydroxyproline,"m7, high dose, Table 10b",0.87 *
same,3-O-Methylsphingosine (d18:1),"m14, high dose, Table 10a",1.43^
same,5-O-Methylsphingosine (d18:1),"m14, high dose, Table 10a",1.67 *
same,Cysteine,"m14, high dose, Table 10a",2.03 *
same,Oleic acid (C18:cis[9]1),"m14, high dose, Table 10a",0.88^
same,Stearic acid (C18:0),"m14, high dose, Table 10a",1.2
same,alpha-Tocopherol,"m14, high dose, Table 10a",1.64 *
same,threo-Sphingosine (d18:1),"m14, high dose, Table 10a",1.45 *
same,Oleic acid (C18:cis[9]1),"m14, high dose, Table 10b",0.88 *
same,Thyroxine (T4),"m14, high dose, Table 10b",0.59^
same,trans-4-Hydroxyproline,"m14, high dose, Table 10b",0.83 *
same,3-O-Methylsphingosine (d18:1),"m28, high dose, Table 10a",2.23 *
same,5-O-Methylsphingosine (d18:1),"m28, high dose, Table 10a",2.39 *
same,Lignoceric acid (C24:0),"m28, high dose, Table 10a",1.79 *
same,Nervonic acid (C24:cis[15]1),"m28, high dose, Table 10a",1.57 *
same,Oleic acid (C18:cis[9]1),"m28, high dose, Table 10a",0.98^
same,Stearic acid (C18:0),"m28, high dose, Table 10a",1.42 *
same,alpha-Tocopherol,"m28, high dose, Table 10a",1.74 *
same,threo-Sphingosine (d18:1),"m28, high dose, Table 10a",2.2 *
same,Oleic acid (C18:cis[9]1),"m28, high dose, Table 10b",0.98
same,"Phosphatidylcholine (C16:0, C16:0)","m28, high dose, Table 10b",0.99
same,Thyroxine (T4),"m28, high dose, Table 10b",0.72
same,trans-4-Hydroxyproline,"m28, high dose, Table 10b",0.72 *
same,Cysteine,"rat, in vivo",1.37 *
same,Lignoceric acid (C24:0),"rat, in vivo",1.35^
same,Nervonic acid (C24:cis[15]1),"rat, in vivo",1.68^
same,"Phosphatidylcholine (C16:0, C16:0)","rat, in vivo",1.03^
